Laboratory results published in ChEMBL document CHEMBL2074010, “Transport function and hepatocellular localization of mrp6 in rat liver” (Mol Pharmacol, 2000).

Molecular target: ATP-binding cassette sub-family C member 2 (Rattus norvegicus, UniProt Q63120)
Assay: TP_TRANSPORTER: uptake in membrane vesicles from Mrp2-expressing Sf9 cells
Format: functional, cell membranes, Membrane vesicle

Sequence of ATP-binding cassette sub-family C member 2 (Q63120 whole entry): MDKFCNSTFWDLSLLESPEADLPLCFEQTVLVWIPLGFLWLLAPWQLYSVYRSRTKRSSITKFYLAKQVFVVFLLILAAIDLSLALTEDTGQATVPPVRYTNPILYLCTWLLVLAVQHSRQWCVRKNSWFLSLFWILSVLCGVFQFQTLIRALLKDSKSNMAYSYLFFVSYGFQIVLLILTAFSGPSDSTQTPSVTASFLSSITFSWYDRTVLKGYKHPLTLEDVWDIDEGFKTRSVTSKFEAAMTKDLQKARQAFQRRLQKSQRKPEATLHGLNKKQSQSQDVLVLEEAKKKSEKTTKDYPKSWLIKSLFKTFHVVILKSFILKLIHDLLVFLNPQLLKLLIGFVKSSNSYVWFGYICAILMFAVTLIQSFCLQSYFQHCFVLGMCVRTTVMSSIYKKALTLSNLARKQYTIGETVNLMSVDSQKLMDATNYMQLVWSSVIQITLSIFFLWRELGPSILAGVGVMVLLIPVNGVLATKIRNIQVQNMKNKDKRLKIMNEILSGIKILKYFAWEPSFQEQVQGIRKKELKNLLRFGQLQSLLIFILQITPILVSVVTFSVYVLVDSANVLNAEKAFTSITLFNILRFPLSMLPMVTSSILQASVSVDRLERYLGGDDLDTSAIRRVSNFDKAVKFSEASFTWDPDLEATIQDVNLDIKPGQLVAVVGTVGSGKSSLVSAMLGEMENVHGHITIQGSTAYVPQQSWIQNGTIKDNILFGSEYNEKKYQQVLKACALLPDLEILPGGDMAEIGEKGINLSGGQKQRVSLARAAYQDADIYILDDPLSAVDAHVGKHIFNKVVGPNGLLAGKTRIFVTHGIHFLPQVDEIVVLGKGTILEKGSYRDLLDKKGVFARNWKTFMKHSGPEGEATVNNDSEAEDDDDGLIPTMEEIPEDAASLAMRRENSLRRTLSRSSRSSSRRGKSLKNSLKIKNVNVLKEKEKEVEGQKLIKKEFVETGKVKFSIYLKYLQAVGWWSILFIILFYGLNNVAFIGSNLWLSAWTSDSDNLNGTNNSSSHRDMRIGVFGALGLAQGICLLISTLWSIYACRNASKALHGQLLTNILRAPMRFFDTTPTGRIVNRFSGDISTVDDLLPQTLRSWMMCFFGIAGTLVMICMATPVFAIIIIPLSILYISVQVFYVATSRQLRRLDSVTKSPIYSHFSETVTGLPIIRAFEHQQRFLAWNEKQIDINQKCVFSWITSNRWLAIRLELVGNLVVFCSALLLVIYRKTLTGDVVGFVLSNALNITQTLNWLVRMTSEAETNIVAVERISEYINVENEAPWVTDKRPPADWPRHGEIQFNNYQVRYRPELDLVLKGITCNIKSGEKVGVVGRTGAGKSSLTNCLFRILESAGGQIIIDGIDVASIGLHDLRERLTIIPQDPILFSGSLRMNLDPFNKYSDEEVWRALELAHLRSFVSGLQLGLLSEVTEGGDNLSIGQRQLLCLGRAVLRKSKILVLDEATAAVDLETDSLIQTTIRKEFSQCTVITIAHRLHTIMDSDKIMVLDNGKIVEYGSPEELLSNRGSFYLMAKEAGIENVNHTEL

Row | SMILES | Activity
1 | C[C@]12CC[C@@H]3c4ccc(O)cc4CC[C@H]3[C@@H]1CC[C@@H]2O[C@@H]1O[C@H](C(=O)O)[C@@H](O)[C@H](O)[C@H]1O [ESTRADIOL 17B GLUCURONIDE] | is not a substrate [-]
2 | CC[C@H](C)[C@H](NC(=O)[C@H](CC(=O)O)NC(=O)[C@H](CC(C)C)NC(=O)[C@H](Cc1cnc[nH]1)NC(=O)[C@@H]1CSSC[C@H](N)C(=O)N[C@@H](CO)C(=O)N[C@H]2CSSC[C@H](NC(=O)[C@H](CCC(=O)O)NC(=O)[C@H](CCCCN)NC(=O)[C@H](CC(=O)O)NC(=O)[C@H](CCSC)NC(=O)[C@H](CC(C)C)NC(=O)[C@H](CO)NC(=O)[C@H](CO)NC2=O)C(=O)N[C@@H](C(C)C)C(=O)N[C@@H](Cc2ccc(O)cc2)C(=O)N[C@@H](Cc2ccccc2)C(=O)N1)C(=O)N[C@H](C(=O)N[C@@H](Cc1c[nH]c2ccccc12)C(=O)O)[C@@H](C)CC [ENDOTHELIN] | substrate [+]
3 | N[C@@H](CCC(=O)N[C@H](CSc1ccc([N+](=O)[O-])cc1[N+](=O)[O-])C(=O)NCC(=O)O)C(=O)O | is not a substrate [-]
4 | CCCCC/C=C\C\C=C/C=C/C=C/[C@@H](SC[C@@H](NC(=O)CC[C@H](N)C(=O)O)C(=O)NCC(=O)O)[C@@H](O)CCCC(=O)O [LEUKOTRIEN C4] | is not a substrate [-]
